This is an account of results in patent US20210130445A1 (priority 2019, published 2021).

On the set-up of test [1]: species or system human. Particulars: in vivo, sc.
On the set-up of test [2]: species or system human; unit not given here. The note with it: in vivo.

Take `C[C@@H]1[C@H](c2c(F)ccc(F)c2F)C[C@H](NC(=O)c2cnc3c(c2)C[C@@]2(C3)C(=O)Nc3ncccc32)C(=O)N1CC(F)(F)F` [atogepant]: in test [1], the patient-reported pain result is reported as “pain free”.
For the molecule onabotulinumtoxinA, in test [2], the “duration of significant pain alleviation” value is listed as “one to about six”. Further, the patient-reported pain result in test [1] was “pain free”.

B1: erenumab (antibody, chains of the INN, looked up, V domains shown)
VH: QVQLVESGGGVVQPGRSLRLSCAASGFTFSSFGMHWVRQAPGKGLEWVAVISFDGSIKYSVDSVKGRFTISRDNSKNTLFLQMNSLRAEDTAVYYCARDRLNYYDSSGYYHYKYYGMAVWGQGTTVTVSS
VL: QSVLTQPPSVSAAPGQKVTISCSGSSSNIGNNYVSWYQQLPGTAPKLLIYDNNKRPSGIPDRFSGSKSGTSTTLGITGLQTGDEADYYCGTWDSRLSAVVFGGGTKLTVL
Consider B1, for which the “duration of significant pain alleviation” value in test [2] is recorded as “one to about six”.
